Laboratory results taken from patent US20070149446A1, “Tamandarin analogs and fragments thereof and methods of making and using” (The Trustees of the University of Pennsylvania Center for …, priority 2003, published 2007).
Where two headings read alike, the source gives them in different places.

What was measured:
[1] = amide bond, 21-membered ring, HATU/NMM, CH3CN, 0.0 °C
[2] = amide bond, HATU/DIEA, DMF, 25.0 °C, 17.0 h, 3 steps

**Q.** With [N-Me-Ala^4]-Tamandarin B macrocycle as the compound, how does the ring closure, isolated yield ([1]; 4.8 mM) read?
**A.** The ring closure, isolated yield was 48%.

**Q.** For [Ser^6]-Tamandarin B macrocycle, which ring closure, isolated yield ([1]; 5.7 mM) is on record?
**A.** The ring closure, isolated yield was 89%.

**Q.** For [Ala^4]-Tamandarin B macrocycle, which ring closure, isolated yield ([1]; 4.6 mM) is on record?
**A.** Its ring closure, isolated yield is 60%.

**Q.** Which ring closure, yield of all isomers ([2]; from COc1ccc(C[C@@H](C(=O)O[C@H](C)[C@H](NC(=O)OC(C)(C)C)C(=O)O)N(C)C(=O)[C@@H]2CCCN2C(=O)[C@H](CC(C)C)NC(=O)[C@@H](OC(=O)C[C@H](O[Si](C(C)C)(C(C)C)C(C)C)[C@H](N)C(C)C)C(C)C)cc1, 10.0 mM) does the source give for COc1ccc(C[C@H]2C(=O)O[C@H](C)[C@H](NC(=O)OC(C)(C)C)C(=O)N[C@H](C(C)C)[C@@H](O[Si](C(C)C)(C(C)C)C(C)C)CC(=O)O[C@@H](C(C)C)C(=O)N[C@@H](CC(C)C)C(=O)N3CCC[C@H]3C(=O)N2C)cc1 here?
**A.** Its ring closure, yield of all isomers is 19%.

**Q.** With “[2-Naphthylala^5]-Tamandarin B macrocycle” as the compound, how does the ring closure, isolated yield ([1]; 5.0 mM) read?
**A.** Its ring closure, isolated yield is 65%.

**Q.** With CC(C)C[C@@H]1NC(=O)[C@H](C(C)C)OC(=O)C[C@H](O[Si](C(C)C)(C(C)C)C(C)C)[C@@H](C(C)C)NC(=O)[C@@H](NC(=O)OC(C)(C)C)[C@@H](C)OC(=O)[C@H](Cc2ccccc2)N(C)C(=O)[C@@H]2CCCN2C1=O as the compound, how does the ring closure, yield of all isomers ([2]; from CC(C)C[C@H](NC(=O)[C@@H](OC(=O)C[C@H](O[Si](C(C)C)(C(C)C)C(C)C)[C@H](N)C(C)C)C(C)C)C(=O)N1CCC[C@H]1C(=O)N(C)[C@@H](Cc1ccccc1)C(=O)O[C@H](C)[C@H](NC(=O)OC(C)(C)C)C(=O)O, 8.9 mM) read?
**A.** The ring closure, yield of all isomers was 15%.
